Test results as given in US4868210A, “Antihyperlipidemic and antiatherosclerotic compounds and compositions” (priority 1988, dated 1989).

Biological target: T1, acyl-CoA:cholesterol acyltransferase (ACAT) (Oryctolagus cuniculus, UniProt G1SFD9)
T1 construct: tissue preparation containing rabbit intestinal microsomes; from tissue; host or cells: rabbit intestinal microsomes
T1 sequence (G1SFD9 1-524): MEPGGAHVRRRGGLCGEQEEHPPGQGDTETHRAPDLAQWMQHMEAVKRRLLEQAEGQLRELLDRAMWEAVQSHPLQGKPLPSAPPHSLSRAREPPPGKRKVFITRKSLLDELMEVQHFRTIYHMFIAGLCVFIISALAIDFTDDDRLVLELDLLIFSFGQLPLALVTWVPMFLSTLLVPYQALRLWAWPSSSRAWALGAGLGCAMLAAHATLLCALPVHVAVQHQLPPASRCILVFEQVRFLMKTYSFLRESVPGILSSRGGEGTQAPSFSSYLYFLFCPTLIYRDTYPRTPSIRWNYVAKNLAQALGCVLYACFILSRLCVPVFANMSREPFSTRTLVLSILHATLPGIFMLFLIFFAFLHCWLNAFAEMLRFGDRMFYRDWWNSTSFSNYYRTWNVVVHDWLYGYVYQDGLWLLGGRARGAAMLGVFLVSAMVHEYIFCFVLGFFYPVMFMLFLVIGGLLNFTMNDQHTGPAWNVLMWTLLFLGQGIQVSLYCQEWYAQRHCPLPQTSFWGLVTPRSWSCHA
Assay: In vitro ACAT inhibition (radiolabeled cholesterol oleate formation from radiolabeled oleic acid in rabbit intestinal microsomes)
Type: biochemical
Settings: concentration required to inhibit 50% the acylation of cholesterol by oleic acid
Procedure: The ability of representative compounds of the present invention to inhibit ACAT was measured using an in vitro test more fully described in Field, F. J. and Salone, R. G., Biochemica et Biophysica 712: 557-570 (1982). The test assesses the ability of a test compound to inhibit the acylation of cholesterol by oleic acid by measuring the amount of radiolabeled cholesterol oleate formed from radiolabeled oleic acid in a tissue preparation containing rabbit intestinal microsomes.

Point of comparison: `CC(C)c1cccc(C(C)C)c1NC(=O)NC1CC(C)(C)c2ccccc2C1(C)C` (stereo not shown) [Example 13, N-[2,6-bis(1-methylethyl)phenyl]-N'-(1,2,3,4-tetrahydro-1,1,4,4-tetramethyl-2-naphthalenyl)urea], IC50 0.089 µM. Against it:
- Cc1cccc(C)c1NC(=O)NC1CC(C)(C)c2ccccc2C1(C)C (stereo not shown) [Example 12, N-(2,6-dimethylphenyl)-N'-(1,2,3,4-tetrahydro-1,1,4,4-tetramethyl-2-naphthalenyl)urea] — 3-fold higher, 0.27 µM
- COc1ccc2c(c1)CC(CNC(=O)Nc1c(C(C)C)cccc1C(C)C)CC2 (stereo not shown) [Example 11, N-[2,6-bis(1-methylethyl)phenyl]-N'-[(1,2,3,4-tetrahydro-7-methoxy-2-naphthalenyl)methyl]urea] — within 1.5-fold, 0.084 µM
- CC(C)c1cccc(C(C)C)c1NC(=O)NCC1c2ccccc2-c2ccccc21 [Example 1, N-[2,6-bis(1-methylethyl)phenyl]-N'-(9H-fluoren-9-ylmethyl)urea] — 3.3-fold lower, 0.027 µM
- CC(C)c1cccc(C(C)C)c1NC(=O)NC1CCOc2ccccc2C1 (stereo not shown) [Example 8, N-[2,6-bis(1-methylethyl)phenyl]-N'-(2,3,4,5-tetrahydrobenzoxepin-4-yl)urea] — 1.7-fold lower, 0.052 µM
- CC(C)c1cccc(C(C)C)c1NC(=O)NC1COc2ccccc2C1 (stereo not shown) [Example 10, N-[2,6-bis(1-methylethyl)phenyl]-N'-(3,4-dihydro-2H-1-benzopyran-3-yl)urea] — within 1.5-fold, 0.1 µM
- CC(C)c1cccc(C(C)C)c1NC(=O)NC1CCc2ccccc2C1 (stereo not shown) [Example 9, N-[2,6-bis(1-methylethyl)phenyl]-N'-(1,2,3,4-tetrahydro-2-naphthalenyl)urea] — 2.2-fold lower, 0.041 µM
